Experiment [1] concerns Diplodia seriata (F98-01). Put plainly: Mycelial growth on malt-agar medium with fungicide. The experiment is classed as cell-based. How it is done: (§1) Formulation 3 was used in this experiment and was compared with two formulations 5 and 6, is devoid of one of the two active ingredients but of identical composition (the quantity of active ingredient omitted is replaced with water).
(§2) The fungi on which formulations 3, 5 and 6 were tested are Diplodia seriata (F98-01), Neofusicoccum parvum (NpSV), Eutypa lata (St309) and Formitiporia mediterranea (F2010-1).
(§3) The culture medium is a malt-agar medium (15 g of malt and 20 g of agar per litre of deionized water, sterilized at 120° C. for 20 minutes).
(§4) The medium containing the fungicides is prepared by diluting the formulation under investigation in deionized water, which is added to the culture medium. The mixture is then homogenized and distributed in Petri dishes with a diameter of 90 mm.
(§5) The final concentrations of each active ingredient in the medium are as follows: 0.0005, 0.005, 0.05, 0.5, 5, 50 and 500 mg/L.
(§6) Discs with a diameter of 6 mm, cut out with a punch, are placed in each dish in sterile conditions. Three repetitions are carried out for each test. The Petri dishes are incubated at 25° C. for a time necessary for the fungus to develop as far as 1 or 2 cm from the edges of a Petri dish.
(§7) The percentage mycelial growth is evaluated relative to a control placed under the same conditions for each concentration of fungicide, by the following equation: […]
(§8) The value of the concentration of the active ingredients required for inhibiting mycelial growth at 50% (IC50) or at 90% (IC90) is calculated from the regression straight line of the percentage efficacy as a function of the logarithm of the concentration of the fungicide.
(§9) The value of the concentration of the fungicide that is lethal for the fungus is obtained according to the following methodology; the mycelial implants that have not developed on the culture medium with fungicide are transferred to a malt-agar culture medium, without fungicide. The Petri dishes are then incubated at ambient temperature. Failure of the mycelial implant to take is noted.
(§10) The interactions between the fungicides in composition 3 are investigated by Wadley's method. IC50 and IC90 can be determined for each fungicide and for the fungicide combination from the curves plotted for each active ingredient used alone or for the combination.
(§11) IC90 and the theoretical IC90 for the combination is then calculated using the following equation:
(§12) The type and the level of the interaction F are then calculated by dividing the theoretical IC value by the experimental IC observed for the combination of fungicides (F=theoretical IC/experimental IC).
(§13) The interactions are defined thus: • Additivity: F=1, • Synergy: F>1, • Antagonism: F<1.
(§14) The efficacy of tetraconazole, cyproconazole alone or in combination with chlorothalonil or metiram zinc on mycelial growth was evaluated under the same conditions as in Example 4.
(§15) The efficacy of tebuconazole in combination with another […] antifungal, metiram zinc, was also evaluated.

A further experiment relates to Eutypa lata (St309). Put plainly: Mycelial growth on malt-agar medium with fungicide. The experiment is classed as cell-based. On the procedure: as §1, §2, §3, §4, §5, §6, §7, §8, §9, §10, §11, §12, §13, §14, §15
Experiment [2] deals with Neofusicoccum parvum (NpSV). The experiment is described as follows: Mycelial growth on malt-agar medium with fungicide. The experiment is classed as cell-based. On the procedure:
as §1, §2, §3, §4, §5, §6, §7, §8, §9, §10, §11, §12, §13, §14, §15

The subject of experiment [3] is Formitiporia mediterranea (F2010-1). Put plainly: Mycelial growth on malt-agar medium with fungicide. As to conditions: for concentration at which mycelial growth is inhibited completely: Example 6; for fungicide (lethal) activity: at the concentrations tested. The experiment is classed as cell-based, Fomitoporia mediterranea. How it is done:
as §1, §2, §3, §4, §5, §6, §7, §8, §9, §10, §11, §12, §13, §14, §15

Experiment [4] deals with Phaeocremonium aleophilum. Put plainly: Mycelial growth on malt-agar medium with fungicide (Example 6). The experiment is classed as cell-based. How it is done:
as §3, §4, §6, §7, §8
(§16) The value of the concentration of the fungicide that is lethal for the fungus is obtained according to the following methodology; the mycelial implants that have not developed on the culture medium with fungicide are transferred to a malt-agar culture medium, without fungicide. The Petri dishes are then incubated at ambient temperature. Failure of the mycelial implant to take is noted. […]
as §14, §15

Experiment [5] relates to Phaeomoniella chlamydospora. The description is as above. The experiment is classed as cell-based. On the procedure:
as §3, §4, §6, §7, §8, §16, §14, §15

The test system of experiment [6] is Phaemoniella chlamydospora (81pep). The experiment is described as follows: Germination of the spores on malt-agar medium with fungicide. As to conditions: at 0.05 mg/1. The experiment is classed as cell-based. On the procedure:
(§17) Formulation 3 was used in this experiment and was compared with two formulations 5 and 6, devoid of one of the two active ingredients but of identical composition (the quantity of active ingredient omitted is replaced with water).
(§18) The fungi on which formulations 3, 5 and 6 were tested are Phaemoniella chlamydospora (81pep), Phaeoacremonium aleophilum (LR 23), Diplodia seriata (F98-01), Neofusicoccum parvum (NpSV) and Eutypa lata.
(§19) The fungi are transferred to a malt-agar medium (15 g of malt and 20 g of agar per litre of deionized water, sterilized at 120° C. for 20 minutes) in a Petri dish for multiplication.
(§20) The conidia of Phaemoniella chlamydospora and Phaeoacremonium aleophilum are obtained from cultures of these fungi. The conidia are obtained by rinsing the colony of fungi with a few millilitres of sterile deionized water.
(§21) The suspension of conidia in deionized water is then adjusted to 100-200 conidia per μl.
as §3, §4, §5
(§22) 100 μl of a previously homogenized suspension of spores is deposited and spread over the surface of the culture medium.
(§23) Two repetitions are carried out for each test.
(§24) The percentage germination of the spores is evaluated relative to a control placed under the same conditions.
(§25) Two Petri dishes are incubated at 25° C. for a time required for the spores of the control dish to have germinated between 90 and 100%.
(§26) For each Petri dish, 200 spores are counted and the percentage of spores germinated is calculated.
(§27) For each concentration of fungicide, the percentage efficacy of the active ingredient is determined by the following equation: […]

The subject of experiment [7] is Phaeoacremonium aleophilum (LR 23). The description is as above. The experiment is classed as cell-based. How it is done:
as §17, §18, §19, §20, §21, §3, §4, §5, §22, §23, §24, §25, §26, §27

For experiment [8], the system named is Neofusicoccum parvum (NpSV). Described as above. The experiment is classed as cell-based. As to conditions: at the concentration tested. How it is done:
as §17, §18, §19
The conidia of Neofusicoccum parvum are obtained from pycnidia that have developed on fragments of grapevines shoots.
as §3
The medium containing the fungicides is prepared by diluting the formulation under investigation in deionized water, which is added to the culture medium. […]
(§28) The percentage germination of the spores is evaluated relative to a control placed under the same conditions. […]
as §26, §27

The next experiment concerns Eutypa lata. The description is as above. The experiment is classed as cell-based. On the procedure:
as §17, §18, §19
The ascospores of Eutypa lata are obtained from perithecia situated on vine plants that have died from Eutypiosis. The perithecia are decapitated superficially, isolated one by one and soaked in sterile water for approximately 2 hours. The concentration of ascospores is then adjusted to 100-200 conidia per μl.
The culture medium is a malt-agar medium (15 g of malt and 20 g of agar per litre of deionized water, sterilized at 120° C. for 20 minutes). […]
as §28, §26, §27

Experiment [9] deals with Neonectria galligena (Cylindrocarpon heteronema). The experiment is described as follows: Growth inhibition by laser nephelometry in 96-well microplates. The experiment is classed as cell-based. On the procedure: (§29) For multicellular organisms such as fungi, the nephelometry method is used on sporulating strains (Joubert et al., Laser nephelometry applied in an automated microplate system to study filamentous fungus growth, Biotechniques 48: 399-404, 2010).
(§30) The strains are multiplied on suitable agar media in an oven at 20° C., for 8 days before their use, so as to be in their exponential growth phase. The fungal suspension is prepared extemporaneously at a concentration of […] for Pc and […] for Ch.
(§31) 100 μl of the suspension is used for the tests.
(§32) The tests are carried out in 96-well microplates. Doses of 0 ppm, 0.1 ppm, 0.3 ppm, 1 ppm, 3 ppm, 10 ppm, 30 ppm, 100 ppm, 300 ppm, 1000 ppm and 3000 ppm (final concentration of the substance) will be tested per product.
(§33) Three technical repetitions are carried out per modality (target species/formulation).
(§34) Controls are added per target pathogenic agent: one positive growth control and the products alone at the highest doses.
(§35) Nephelometry measurements (RNU) are carried out for 60 h, every 30 minutes and the growth values are measured to study the growth inhibition effect relative to the fungal controls.

Another experiment concerns Phytophthora cactorum. Described as above. As to conditions: nephelometry for 60 h. The experiment is classed as cell-based. On the procedure:
as §29, §30, §31, §32, §33, §34, §35

The IC50 is the point on the concentration scale where inhibition reaches its midpoint.

Regarding `CC(C1CC1)C(O)(Cn1cncn1)c1ccc(Cl)cc1` (centres unmarked) [cyproconazole], the “activity on mycelial growth” value in [1] (Example 6) is listed as “low activity”. For the same compound, in the experiment on Eutypa lata (St309) (Example 6), the “concentration from which mycelial growth is inhibited completely” value is reported as no less than 1 mg/L and the lethal dose is 10 mg/L. Moreover, in experiment [2] (Example 6), the “concentration at which mycelial growth is inhibited completely” value came out at 500 mg/L. Besides, in experiment [3], the “concentration at which mycelial growth is inhibited completely” value stood at 500 mg/L and the “fungicide (lethal) activity” value is listed as “fungicidal”. Further, in experiment [4], the “concentration at which mycelial growth is inhibited completely” value is on record as 50 mg/L and the “concentration at which the substance is fungicidal (lethal dose)” value (“concentration … (lethal dose)” below) turned out to be 100 mg/L. Besides, in experiment [5], the “concentration at which mycelial growth is inhibited completely” value came to 50 mg/L and the “concentration at which the substance is fungicidal” value was 100 mg/L.

Regarding `CC(C)(C)C(O)(CCc1ccc(Cl)cc1)Cn1cncn1` (centres unmarked) [tebuconazole], the “inhibition of germination of the spores” value is reported as “inhibit germination of the spores completely” in experiment [6], “does not prevent germination of the spores” in [7] (at the concentrations tested (0.0005 to 500 mg/L)) and “does not inhibit germination of the spores” in [8]. Further, the “concentration from which elongation of the spores is inhibited” value in experiment [7] is no less than 5 mg/L. For the same compound, the “concentration that inhibits germination of the spores” value in the experiment on Eutypa lata is reported as 50 mg/1. Also, the IC50 in experiment [1] (Diplodia seriata, Example 5, mycelial growth, unit not given (concentrations tested in mg/L)) is 6 ng/mL; in experiment [2] (Neofusicoccum parvum, Example 5, mycelial growth, unit not given (concentrations tested in mg/L)), 13 ng/mL; in experiment [3] (Example 5, mycelial growth, unit not given (concentrations tested in mg/L)) it was 3 ng/mL; in experiment [9] (growth, nephelometry for 60 h), “around 230 ppm”. In addition, the “concentration from which mycelial growth is inhibited completely” value in experiment [1] (Example 5) was no less than 50 mg/L; in the experiment on Eutypa lata (St309) (Example 5), no less than 0.5 mg/L; in experiment [2] (Example 5), no less than 0.5 mg/L; in experiment [3] (Example 5), no less than 0.5 mg/L. Moreover, the lethal concentration in [1] (Example 5) turned out to be 500 mg/L; in the experiment on Eutypa lata (St309) (Example 5, implants transferred to medium without fungicide), 500 mg/L; in experiment [2] (Example 5) it was 500 mg/L. The “fungicide (lethal) activity” value in experiment [3] was “None of the concentrations tested is lethal”. Moreover, the “concentration at which mycelial growth is inhibited completely” value in experiment [4] and in experiment [5] was 50 mg/L in each case. Further, the “concentration … (lethal dose)” value in [4] came to 100 mg/L. The “concentration at which the substance is fungicidal” value in [5] is 100 mg/L. The lethal dose in [9] turned out to be 1000 ppm. Besides, in [9] (growth, nephelometry for 60 h), the IC90 entry is “around 800 ppm”. In addition, the “50% inhibitory concentration (IC50)” value with Phytophthora cactorum is “around 200 ppm”. Besides, the “90% inhibitory concentration (IC90)” value with Phytophthora cactorum is listed as less than 1000 ppm.

For metiram zinc, the “concentration at which mycelial growth is inhibited completely” value in [1] (Example 6) is given as 500 mg/L; in experiment [3], 500 mg/L; in experiment [4], 100 mg/L; in experiment [5], 100 mg/L. Also, the “activity on mycelial growth” value is “low activity” in the experiment with Eutypa lata (St309) (Example 6); “do not inhibit the mycelial growth of Eutypa lata completely” in the experiment with Eutypa lata (St309) (Example 6, listed as Metiram zinc); “moderate activity” in experiment [2] (Example 6). Also, the “fungicide (lethal) activity” value in experiment [3] was “fungicidal”.

Turning to `FC(F)C(F)(F)OCC(Cn1cncn1)c1ccc(Cl)cc1Cl` (centres unmarked) [tetraconazole], the “concentration at which mycelial growth is inhibited completely” value in [1] (Example 6) turned out to be 500 mg/L. In addition, in the experiment with Eutypa lata (St309) (Example 6), the “concentration from which mycelial growth is inhibited completely” value is recorded as no less than 5 mg/L and the lethal dose stood at 50 mg/L. Also, in experiment [2] (Example 6), the “concentration at which mycelial growth is inhibited completely” value came to 500 mg/L. In [3], the “concentration at which mycelial growth is inhibited completely” value worked out at 10 mg/L and the “fungicide (lethal) activity” value is “fungicidal”. For the same compound, in experiment [4], the “concentration at which mycelial growth is inhibited completely” value worked out at 50 mg/L and the “concentration … (lethal dose)” value stood at 100 mg/L. Besides, in experiment [5], the “concentration at which mycelial growth is inhibited completely” value stood at 50 mg/L and the “concentration at which the substance is fungicidal” value was 100 mg/L.

The values above are taken from patent publication US20180160679A1, “PROCESS FOR TREATING PERENNIAL PLANT WOOD DISEASES” (priority 2015, published 2018).
